Measured values published in patent publication US9469650B2, “Melampomagnolide B derivatives” (BOARD OF TRUSTEES OF THE UNIVERSITY OF ARKANSAS, priority 2013, dated 2016).
Where two headings read alike, the source gives them in different places.

Experiments:
NCI-H23 = assay: panel of 60 human tumor cell lines, growth inhibition (Non-Small Cell Lung Cancer); conditions: NCI-H23
PC-3 = assay: panel of 60 human tumor cell lines, growth inhibition (Prostate Cancer); conditions: PC-3
HT29 = assay: panel of 60 human tumor cell lines, growth inhibition (Colon Cancer); conditions: HT29
NCI-H460 = assay: panel of 60 human tumor cell lines, growth inhibition (Non-Small Cell Lung Cancer); conditions: NCI-H460
HOP-92 = assay: as above; conditions: HOP-92
CCRF-CEM = assay: panel of 60 human tumor cell lines, growth inhibition (Leukemia)
HCT-15 = assay: panel of 60 human tumor cell lines, growth inhibition (Colon Cancer); conditions: HCT-15
NCI-H226 = assay: panel of 60 human tumor cell lines, growth inhibition (Non-Small Cell Lung Cancer); conditions: NCI-H226
M14 = assay: panel of 60 human tumor cell lines, growth inhibition (Melanoma); conditions: M14
ACHN = assay: panel of 60 human tumor cell lines, growth inhibition (Renal Cancer)
SF-539 = assay: panel of 60 human tumor cell lines, growth inhibition (CNS Cancer); conditions: SF-539
MDA-MB-231/ATCC = assay: panel of 60 human tumor cell lines, growth inhibition (Breast Cancer); conditions: MDA-MB-231/ATCC
COLO 205 = assay: panel of 60 human tumor cell lines, growth inhibition (Colon Cancer); conditions: COLO 205
MDA-MB-435 = assay: panel of 60 human tumor cell lines, growth inhibition (Melanoma); conditions: MDA-MB-435
SN12C = assay: panel of 60 human tumor cell lines, growth inhibition (Renal Cancer)
NCI-H522 = assay: panel of 60 human tumor cell lines, growth inhibition (Non-Small Cell Lung Cancer); conditions: NCI-H522

C=C1C(=O)O[C@H]2[C@H]1CC/C(COC(=O)NCCO)=C\CC[C@@]1(C)O[C@@H]21 [JVM 2-50]
Percent Growth (NCI-H23; Log10 Concentration −4.0): −53% | Percent Growth (NCI-H23; Log10 Concentration −5.0): 67% | Percent Growth (NCI-H23; Log10 Concentration −6.0): 100% | Percent Growth (NCI-H23; Log10 Concentration −7.0): 102% | Percent Growth (NCI-H23; Log10 Concentration −8.0): 98% | GI50 (NCI-H23; NCI five dose): 13.8 µM | TGI (NCI-H23; NCI five dose): 3.61E−5 | Percent Growth (PC-3; Log10 Concentration −4.0): −21% | Percent Growth (PC-3; Log10 Concentration −5.0): 94% | Percent Growth (PC-3; Log10 Concentration −6.0): 97% | Percent Growth (PC-3; Log10 Concentration −7.0): 93% | Percent Growth (PC-3; Log10 Concentration −8.0): 98% | GI50 (PC-3; NCI five dose): 24.1 µM | TGI (PC-3; NCI five dose): 6.57E−5 | Percent Growth (HT29; Log10 Concentration −4.0): −47% | Percent Growth (HT29; Log10 Concentration −5.0): 57% | Percent Growth (HT29; Log10 Concentration −6.0): 109% | Percent Growth (HT29; Log10 Concentration −7.0): 104% | Percent Growth (HT29; Log10 Concentration −8.0): 99% | GI50 (HT29; NCI five dose): 11.7 µM | TGI (HT29; NCI five dose): 3.55E−5 | Percent Growth (NCI-H460; Log10 Concentration −4.0): 8% | Percent Growth (NCI-H460; Log10 Concentration −5.0): 98% | Percent Growth (NCI-H460; Log10 Concentration −6.0): 98% | Percent Growth (NCI-H460; Log10 Concentration −7.0): 100% | Percent Growth (NCI-H460; Log10 Concentration −8.0): 100% | GI50 (NCI-H460; NCI five dose): 34 µM | TGI (NCI-H460; NCI five dose): >1.00E−4 | Percent Growth (HOP-92; Log10 Concentration −4.0): −88% | Percent Growth (HOP-92; Log10 Concentration −5.0): 13% | Percent Growth (HOP-92; Log10 Concentration −6.0): 94% | Percent Growth (HOP-92; Log10 Concentration −7.0): 86% | Percent Growth (HOP-92; Log10 Concentration −8.0): 90% | GI50 (HOP-92; NCI five dose): 3.49 µM | TGI (HOP-92; NCI five dose): 1.35E−5 | Percent Growth (CCRF-CEM; Log10 Concentration −4.0): −44% | Percent Growth (CCRF-CEM; Log10 Concentration −5.0): 1% | Percent Growth (CCRF-CEM; Log10 Concentration −6.0): 83% | Percent Growth (CCRF-CEM; Log10 Concentration −7.0): 102% | Percent Growth (CCRF-CEM; Log10 Concentration −8.0): 98% | GI50 (CCRF-CEM; NCI five dose): 2.52 µM | TGI (CCRF-CEM; NCI five dose): 1.03E−5 | Percent Growth (HCT-15; Log10 Concentration −4.0): −71% | Percent Growth (HCT-15; Log10 Concentration −5.0): 16% | Percent Growth (HCT-15; Log10 Concentration −6.0): 94% | Percent Growth (HCT-15; Log10 Concentration −7.0): 95% | Percent Growth (HCT-15; Log10 Concentration −8.0): 93% | GI50 (HCT-15; NCI five dose): 3.7 µM | TGI (HCT-15; NCI five dose): 1.54E−5 | Percent Growth (NCI-H226; Log10 Concentration −4.0): −37% | Percent Growth (NCI-H226; Log10 Concentration −5.0): 67% | Percent Growth (NCI-H226; Log10 Concentration −6.0): 91% | Percent Growth (NCI-H226; Log10 Concentration −7.0): 96% | Percent Growth (NCI-H226; Log10 Concentration −8.0): 93% | GI50 (NCI-H226; NCI five dose): 14.6 µM | TGI (NCI-H226; NCI five dose): 4.43E−5 | Percent Growth (M14; Log10 Concentration −4.0): −57% | Percent Growth (M14; Log10 Concentration −5.0): 56% | Percent Growth (M14; Log10 Concentration −6.0): 92% | Percent Growth (M14; Log10 Concentration −7.0): 97% | Percent Growth (M14; Log10 Concentration −8.0): 91% | GI50 (M14; NCI five dose): 11.2 µM | TGI (M14; NCI five dose): 3.11E−5 | Percent Growth (ACHN; Log10 Concentration −4.0): 84% | Percent Growth (ACHN; Log10 Concentration −5.0): 43% | Percent Growth (ACHN; Log10 Concentration −6.0): 99% | Percent Growth (ACHN; Log10 Concentration −7.0): 101% | Percent Growth (ACHN; Log10 Concentration −8.0): 96% | GI50 (ACHN; NCI five dose): 7.44 µM | TGI (ACHN; NCI five dose): 2.52E−5 | Percent Growth (SF-539; Log10 Concentration −4.0): −85% | Percent Growth (SF-539; Log10 Concentration −5.0): 54% | Percent Growth (SF-539; Log10 Concentration −6.0): 93% | Percent Growth (SF-539; Log10 Concentration −7.0): 95% | Percent Growth (SF-539; Log10 Concentration −8.0): 95% | GI50 (SF-539; NCI five dose): 10.8 µM | TGI (SF-539; NCI five dose): 2.46E−5 | Percent Growth (MDA-MB-231/ATCC; Log10 Concentration −4.0): −66% | Percent Growth (MDA-MB-231/ATCC; Log10 Concentration −5.0): 63% | Percent Growth (MDA-MB-231/ATCC; Log10 Concentration −6.0): 99% | Percent Growth (MDA-MB-231/ATCC; Log10 Concentration −7.0): 91% | Percent Growth (MDA-MB-231/ATCC; Log10 Concentration −8.0): 100% | GI50 (MDA-MB-231/ATCC; NCI five dose): 12.7 µM | TGI (MDA-MB-231/ATCC; NCI five dose): 1.10E−5 | Percent Growth (COLO 205; Log10 Concentration −4.0): −80% | Percent Growth (COLO 205; Log10 Concentration −5.0): 21% | Percent Growth (COLO 205; Log10 Concentration −6.0): 108% | Percent Growth (COLO 205; Log10 Concentration −7.0): 106% | Percent Growth (COLO 205; Log10 Concentration −8.0): 96% | GI50 (COLO 205; NCI five dose): 4.87 µM | TGI (COLO 205; NCI five dose): 1.62E−5 | Percent Growth (MDA-MB-435; Log10 Concentration −4.0): −84% | Percent Growth (MDA-MB-435; Log10 Concentration −5.0): 40% | Percent Growth (MDA-MB-435; Log10 Concentration −6.0): 91% | Percent Growth (MDA-MB-435; Log10 Concentration −7.0): 96% | Percent Growth (MDA-MB-435; Log10 Concentration −8.0): 91% | GI50 (MDA-MB-435; NCI five dose): 6.37 µM | TGI (MDA-MB-435; NCI five dose): 2.10E−5 | Percent Growth (SN12C; Log10 Concentration −4.0): −12% | Percent Growth (SN12C; Log10 Concentration −5.0): 73% | Percent Growth (SN12C; Log10 Concentration −6.0): 31% | Percent Growth (SN12C; Log10 Concentration −7.0): 91% | Percent Growth (SN12C; Log10 Concentration −8.0): 94% | GI50 (SN12C; NCI five dose): 18.6 µM | TGI (SN12C; NCI five dose): 7.22E−5 | Percent Growth (NCI-H522; Log10 Concentration −4.0): −69% | Percent Growth (NCI-H522; Log10 Concentration −5.0): −56% | Percent Growth (NCI-H522; Log10 Concentration −6.0): 97% | Percent Growth (NCI-H522; Log10 Concentration −7.0): 104% | Percent Growth (NCI-H522; Log10 Concentration −8.0): 98% | GI50 (NCI-H522; NCI five dose): 2.03 µM | TGI (NCI-H522; NCI five dose): 4.30E−6 | Percent Growth (HL-60(TB); Log10 Concentration −4.0): −48% | Percent Growth (HL-60(TB); Log10 Concentration −5.0): 9% | Percent Growth (HL-60(TB); Log10 Concentration −6.0): 111% | Percent Growth (HL-60(TB); Log10 Concentration −7.0): 109% | Percent Growth (HL-60(TB); Log10 Concentration −8.0): 106% | GI50 (HL-60(TB); NCI five dose): 3.99 µM | CC50 (HL-60(TB); read-out: LC50, NCI five dose): > 100 µM
